Test results taken from patent US20230150953A1, “SUBSTITUTED ISOPHTHALIC ACID DIAMIDES” (Bayer Aktiengesellschaft, priority 2020, published 2023).

Experiments:
Assay type in all cases: in vivo
[1] = tested on: ABUTH Abutilon theophrasti; test: Pre-emergence herbicidal action against harmful plants; settings: scored visually after 3 weeks vs untreated controls
From the text: (§1) The abbreviations used for the harmful plants mean: • ABUTH Abutilon theophrasti ALOMY Alopecurus myosuroides • AVEFA Avena fatua AMARE Amaranthus retroflexus • CYPES Cyperus esculentus DIGSA Digitaria sanguinalis • ECHCG Echinochloa crus-galli HORMU Hordeum murinum • LOLMU Lolium multiflorum LOLRI Lolium rigidum • MATIN Matricaria inodora PHBPU Pharbitis purpurea • POLCO Polygonum convolvulus SETVI Setaria viridis • STEME Stellaria media VERPE Veronica persica • VIOTR Viola tricolor 1. Pre-Emergence Herbicidal Action Against Harmful Plants Seeds of monocotyledonous and dicotyledonous weed plants and crop plants are laid out in sandy loam soil in wood-fiber pots and covered with soil. The compounds of the invention, formulated in the form of wettable powders (WP) or as emulsion concentrates (EC), are then applied to the surface of the covering soil in the form of an aqueous suspension or emulsion at a water application rate equivalent to 600 to 800 l/ha, with addition of 0.2% wetting agent. After the treatment, the pots are placed in a greenhouse and kept under good growth conditions for the trial plants. The damage to the test plants is scored visually after a test period of 3 weeks by comparison with untreated controls (herbicidal activity in percent (%): 100% activity=the plants have died, 0% activity=like control plants). […] The tables below illustrate, in an illustrative manner, the post-emergence herbicidal action of the compounds of the invention, the herbicidal activity being stated in percent.

[2] = tested on: ALOMY Alopecurus myosuroides; test: as above; settings: scored visually after 3 weeks vs untreated controls
From the text: as §1

[3] = tested on: AMARE Amaranthus retroflexus; test: as above; settings: scored visually after 3 weeks vs untreated controls
From the text: as §1

[4] = tested on: DIGSA Digitaria sanguinalis; test: as above; settings: scored visually after 3 weeks vs untreated controls
From the text: as §1

[5] = tested on: ECHCG Echinochloa crus-galli; test: as above; settings: scored visually after 3 weeks vs untreated controls
From the text: as §1

MATIN Matricaria inodora [6] = test: as above; settings: scored visually after 3 weeks vs untreated controls
From the text: as §1

PHBPU Pharbitis purpurea [7] = test: as above; settings: 80 g/ha, scored visually after 3 weeks vs untreated controls
From the text: as §1

[8] = tested on: POLCO Polygonum convolvulus; test: as above; settings: 80 g/ha, scored visually after 3 weeks vs untreated controls
From the text: as §1

SETVI Setaria viridis [9] = test: as above; settings: 80 g/ha, scored visually after 3 weeks vs untreated controls
From the text: as §1

[10] = tested on: ALOMY Alopecurus myosuroides; test: Post-emergence herbicidal action against harmful plants; settings: one-leaf stage, assessed visually after about 3 weeks vs untreated controls
From the text: (§2) The abbreviations used for the harmful plants mean: • ABUTH Abutilon theophrasti ALOMY Alopecurus myosuroides • AVEFA Avena fatua AMARE Amaranthus retroflexus • CYPES Cyperus esculentus DIGSA Digitaria sanguinalis • ECHCG Echinochloa crus-galli HORMU Hordeum murinum • LOLMU Lolium multiflorum LOLRI Lolium rigidum • MATIN Matricaria inodora PHBPU Pharbitis purpurea • POLCO Polygonum convolvulus SETVI Setaria viridis • STEME Stellaria media VERPE Veronica persica • VIOTR Viola tricolor 2. Post-Emergence Herbicidal Action Against Harmful Plants Seeds of monocotyledonous and dicotyledonous weed and crop plants are laid out in sandy loam soil in wood-fiber pots, covered with soil and cultivated in a greenhouse under good growth conditions. 2 to 3 weeks after sowing, the test plants are treated at the one-leaf stage. The compounds of the invention, formulated in the form of wettable powders (WP) or as emulsion concentrates (EC), are then sprayed onto the green parts of the plants in the form of an aqueous suspension or emulsion at a water application rate equivalent to 600 to 800 l/ha, with addition of 0.2% wetting agent. After the test plants have been left to stand in the greenhouse under optimal growth conditions for about 3 weeks, the action of the preparations is assessed visually in comparison to untreated controls (herbicidal action in percent (%): 100% activity=the plants have died, 0% activity=like control plants). […] The tables below illustrate, in an illustrative manner, the post-emergence herbicidal action of the compounds of the invention, the herbicidal activity being stated in percent.

[11] = tested on: AMARE Amaranthus retroflexus; test: as above; settings: one-leaf stage, assessed visually after about 3 weeks vs untreated controls
From the text: as §2

AVEFA Avena fatua [12] = test: as above; settings: one-leaf stage, assessed visually after about 3 weeks vs untreated controls
From the text: as §2

[13] = tested on: DIGSA Digitaria sanguinalis; test: as above; settings: one-leaf stage, assessed visually after about 3 weeks vs untreated controls
From the text: as §2

PHBPU Pharbitis purpurea [14] = test: as above; settings: one-leaf stage, assessed visually after about 3 weeks vs untreated controls
From the text: as §2

[15] = tested on: POLCO Polygonum convolvulus; test: as above; settings: one-leaf stage, assessed visually after about 3 weeks vs untreated controls
From the text: as §2

SETVI Setaria viridis [16] = test: as above; settings: one-leaf stage, assessed visually after about 3 weeks vs untreated controls
From the text: as §2

AVEFA Avena fatua [17] = test: Pre-emergence herbicidal action against harmful plants; settings: scored visually after 3 weeks vs untreated controls
From the text: as §1

[18] = tested on: ECHCG Echinochloa crus-galli; test: Post-emergence herbicidal action against harmful plants; settings: one-leaf stage, assessed visually after about 3 weeks vs untreated controls
From the text: as §2

LOLRI Lolium rigidum = test: Pre-emergence herbicidal action against harmful plants; settings: scored visually after 3 weeks vs untreated controls
From the text: as §1

MATIN Matricaria inodora [19] = test: Post-emergence herbicidal action against harmful plants; settings: one-leaf stage, assessed visually after about 3 weeks vs untreated controls
From the text: as §2

[20] = tested on: ABUTH Abutilon theophrasti; test: as above; settings: one-leaf stage, assessed visually after about 3 weeks vs untreated controls
From the text: as §2

VERPE Veronica persica = test: as above; settings: one-leaf stage, assessed visually after about 3 weeks vs untreated controls
From the text: as §2

Row | Structure (SMILES) | Pre-emergence action at 80 g/ha against ABUTH in % [1] | Pre-emergence action at 80 g/ha against ALOMY in % [2] | Pre-emergence action at 20 g/ha against AMARE in % [3] | Pre-emergence action at 80 g/ha against AMARE in % [3] | Pre-emergence action at 20 g/ha against DIGSA in % [4] | Pre-emergence action at 80 g/ha against DIGSA in % [4] | Pre-emergence action at 80 g/ha against ECHCG in % [5] | Pre-emergence action at 20 g/ha against MATIN in % (MATIN Matricaria inodora [6]) | Pre-emergence action at 80 g/ha against MATIN in % (MATIN Matricaria inodora [6]) | Pre-emergence action at 80 g/ha against PHBPU in % (PHBPU Pharbitis purpurea [7]) | Pre-emergence action at 80 g/ha against POLCO in % [8] | Pre-emergence action at 80 g/ha against SETVI in % (SETVI Setaria viridis [9]) | Post-emergence action at 20 g/ha against ALOMY in % [10] | Post-emergence action at 20 g/ha against AMARE in % [11] | Post-emergence action at 20 g/ha against DIGSA in % [13] | Post-emergence action at 20 g/ha against PHBPU in % (PHBPU Pharbitis purpurea [14]) | Post-emergence action at 20 g/ha against POLCO in % [15] | Pre-emergence action at 80 g/ha against AVEFA in % (AVEFA Avena fatua [17]) | Post-emergence action at 5 g/ha against AMARE in % [11] | Post-emergence action at 20 g/ha against MATIN in % (MATIN Matricaria inodora [19]) | also measured
1 | Cc1c(C(=O)Nc2nnnn2C)cc(Cl)c(C(F)(F)F)c1C(=O)NC1CC1 [Example 1-85] | 100% | 80% | 100% | 100% | 100% | 100% | 80% | 80% | 100% | 80% | 80% | 100% | 80% | 80% | 90% | 80% | 80% | – | – | – | Post-emergence action at 20 g/ha against AVEFA in % (AVEFA Avena fatua [12]): 80%; Post-emergence action at 20 g/ha against SETVI in % (SETVI Setaria viridis [16]): 80%
2 | Cc1c(C(=O)Nc2nnnn2C)c(F)cc(C(F)(F)F)c1C(=O)NCC1CC1 [Example 1-384] | 100% | 80% | 100% | 100% | 100% | 100% | 100% | – | 80% | – | 90% | 90% | 80% | 90% | – | – | – | 80% | 80% | – | Post-emergence action at 5 g/ha against ECHCG in % ([18]; 5 g/ha): 80%; Post-emergence action at 20 g/ha against ECHCG in % ([18]; 20 g/ha): 80%
3 | CCn1nnnc1NC(=O)c1cc(Cl)c(C(F)(F)F)c(C(=O)NC2CC2)c1C [Example 2-85] | 100% | 90% | 100% | 100% | 80% | 100% | 80% | 90% | 100% | 90% | 80% | 100% | 80% | 90% | 90% | 90% | 80% | 80% | 80% | 80% | Pre-emergence action at 20 g/ha against ABUTH in % ([1]; 20 g/ha): 80%; Pre-emergence action at 20 g/ha against ALOMY in % ([2]; 20 g/ha): 80%; Pre-emergence action at 80 g/ha against LOLRI in % (LOLRI Lolium rigidum): 80%; Post-emergence action at 5 g/ha against PHBPU in % (PHBPU Pharbitis purpurea [14]; 5 g/ha): 80%
4 | CCN(C)C(=O)c1c(C(F)(F)F)cc(F)c(C(=O)Nc2nnnn2CC)c1C [Example 2-96] | 90% | 80% | 100% | 100% | 80% | 90% | 80% | 80% | 90% | 80% | 80% | – | – | 90% | 90% | 90% | – | – | 80% | 80% | Post-emergence action at 20 g/ha against ABUTH in % [20]: 80%; Post-emergence action at 20 g/ha against VERPE in % (VERPE Veronica persica): 80%
